Data from patent publication US12390482B2, “Neurolytic agents and methods of using and identifying same” (priority 2021, dated 2025).

How the values were obtained:
[1] = tested on: WT mouse embryonic dorsal root ganglion (DRG) neurons; test: Axon degeneration in cultured WT DRG neurons; format: cell-based; conditions: for activity as SARM1 activator (tested compounds): axon degeneration and SARM1 activation assays
Protocol: (§1) DRG neuron culture: Mouse DRG culture was as described previously. Mouse DRGs were dissected at embryonic day 13.5. Approximately 50 ganglia were collected from each embryo and dissociated in 0.05% Trypsin containing 0.02% EDTA (Gibco) at 37° C. for 20 min. The DRG neurons were washed 3 times with DRG culture medium after incubation with Trypsin. Cells were seeded as spot cultures in 96-tissue culture plates (Corning) coated with 0.1 mg/ml poly-D-lysine and 0.1 mg/ml laminin. They were cultured in Neurobasal (Gibco) containing 2% B27 (Invitrogen), 100 ng/ml 2.5S NGF (Harlan Bioproducts), and 1 μM 5-fluoro-2′-deoxyuridine/1 μM uridine. The culture medium was exchanged with fresh DRG culture medium every 2-3 days. Lentiviruses were added 3 days after seeding (DIV3).
[…] After axon transection, bright-field images of distal axons were taken using the Operetta automated imaging system (PerkinElmer). Axon degeneration indexes were calculated from these bright-field images using ImageJ (NIH). The axon degeneration index was calculated as the ratio of fragmented axon areas as previously described. Indexes were calculated as the average of six fields per well.

[2] = tested on: Sarm1 KO DRG neurons; test: Axon degeneration and neuronal death in cultured Sarm1 KO DRG neurons; format: cell-based, mouse
Protocol: as §1
Quantification of axon degeneration: After culture for 7 days, axotomy was performed by cutting DRG axons manually with a razor blade. After axon transection, bright-field images of distal axons were taken using the Operetta automated imaging system (PerkinElmer). Axon degeneration indexes were calculated from these bright-field images using ImageJ (NIH). The axon degeneration index was calculated as the ratio of fragmented axon areas as previously described. Indexes were calculated as the average of six fields per well.

[3] = molecular target: T1, SARM1 (Homo sapiens, UniProt Q6SZW1); test: SARM1 activation assay by PC6 fluorescence; format: biochemical
T1 construct: StrepTag (N); made in house; host or cells: HEK 293T cells stably expressing NRK1
T1 sequence (Q6SZW1 28-724): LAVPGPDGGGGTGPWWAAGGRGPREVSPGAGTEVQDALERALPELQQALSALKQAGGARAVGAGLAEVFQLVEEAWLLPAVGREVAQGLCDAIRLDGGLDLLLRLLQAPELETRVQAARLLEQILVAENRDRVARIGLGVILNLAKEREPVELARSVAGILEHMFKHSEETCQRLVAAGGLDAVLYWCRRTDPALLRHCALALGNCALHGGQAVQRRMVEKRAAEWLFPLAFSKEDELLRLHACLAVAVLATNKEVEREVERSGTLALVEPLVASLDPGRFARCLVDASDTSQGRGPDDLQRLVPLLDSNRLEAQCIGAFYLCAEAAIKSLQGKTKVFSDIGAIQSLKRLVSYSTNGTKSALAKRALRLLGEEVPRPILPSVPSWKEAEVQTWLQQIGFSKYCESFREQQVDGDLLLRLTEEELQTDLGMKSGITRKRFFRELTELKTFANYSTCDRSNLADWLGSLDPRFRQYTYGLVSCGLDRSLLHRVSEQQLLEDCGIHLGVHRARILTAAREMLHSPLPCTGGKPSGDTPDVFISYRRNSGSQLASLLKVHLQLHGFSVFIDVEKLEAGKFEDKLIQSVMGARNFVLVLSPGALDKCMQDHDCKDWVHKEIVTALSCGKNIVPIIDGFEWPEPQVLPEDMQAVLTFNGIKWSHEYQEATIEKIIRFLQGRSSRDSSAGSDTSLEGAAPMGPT
Protocol: SARM1 protein purification from mammalian cells: A HEK 293T cell line stably expressing NRK1 was used to produce SARM1 protein as previously described. In short, plasmid containing N-terminal StrepTag-SARM1 was transfected into NRK1-HEK 293T cells using X-tremeGENE reagent (Millipore Sigma). After 2 days, the cells were harvested and re-suspended with binding buffer (100 mM Tris-HCL pH 8, 150 mM sodium chloride, 0.01% Tween-20 with EDTA-free protease inhibitors (Pierce)). After sonication, cell debris was removed by centrifugation at 15,000×g for 10 minutes. Soluble lysates were then mixed with StrepTactin Megbeads (Cube Biotech) equilibrated with the same binding buffer. After incubation at 4° C. for 60 minutes, beads were washed with washing buffer (25 mM HEPES, pH 7.5 and 150 mM NaCl with EDTA-free protease inhibitors). […]
SARM1 activation assay by PC6 fluorescence: Modified from previous paper, typically, in a mixture of 50 μl, ˜200 ng of SARM1(on-beads) was mixed with 50 μM PC6, 50 μM NAD^+ and 0 to 100 μM of purified 3APMN. The reaction was carried out in a Bio Tek's Cytation 5 plate reader at 25° C. Fluorescence signal, which corresponds to PAD6 formation, was recorded with 405 nm excitation and 520 nm emission wavelengths every 2 minutes. The production rate of PAD6 was calculated based on the fluorescence changes within the first 30 minutes of reaction.

[4] = tested on: WT DRG neurons; test: Metabolite measurement by LC-MS/MS in WT DRG neurons; format: cell-based, mouse; conditions: neurons pre-treated with FK866 prior to 3-AP addition
Protocol: as §1
Metabolite measurement using LC-MS/MS: Lyophilized samples were reconstituted with 50 μl of 5 mM ammonium formate and centrifuged at 12,000 g for 10 min. Cleared supernatants were transferred to sample vials. Serial dilutions of standards for each metabolite in 5 mM ammonium formate were used for calibration. HPLC-mass spectrometry analysis was performed on an Agilent 1290 Infinity II liquid chromatography system (Agilent Technologies, Santa Clara, CA) with a flexible pump, multisampler, sample cooler and an MCT containing an Atlantis T3 column (2.1×150 mm, 3 μm) and VanGuard guard cartridge (2.1 mm×5 mm, 3 μm) (Waters, Milford, MA), coupled to an Agilent 6470 Triple Quad mass spectrometer (Agilent Technologies, Santa Clara, CA). The mobile phase (0.15 ml/min) was 5 mM ammonium formate in water (A) and 100% methanol (B). The column was equilibrated with 0% B, maintained after injection for 2 min, then a linear gradient to 20% B applied over 4 min. The column was then ramped to 50% B over 2 min, and held at 50% for 2 min, then reverted back to 0% B over the next 5 min and allowed to re-equilibrate at 0% B for 9 min. The total run time was 24 min per sample. […] Raw data were acquired and quantified using MassHunter Workstation software version B.08.00 for 6400 Series Triple Quadrupole (Agilent Technologies, Santa Clara, CA).

[5] = tested on: sensory neurons; test: Vacor-induced degeneration of sensory neurons; format: cell-based

## CC(=O)c1ccccn1 [2-acetylpyridine]
[1]
  activity as SARM1 activator (tested compounds): did not work

## Nc1ccccn1 [2-aminopyridine]
[1]; WT neurons
  axon degeneration: causes axon degeneration
[2]
  axon degeneration: not in Sarm1 KO neurons

## CC(=O)c1ccc[n+]([C@@H]2O[C@H](COP(=O)([O-])O)[C@@H](O)[C@H]2O)c1 [3-APMN, 3-acetylpyridine mononucleotide]
[3]
  EC50: ~44 µM

## Nc1cccnc1 [3-aminopyridine]
[1]
  activity as SARM1 activator (tested compounds): did not work

## CC(=O)c1ccncc1 [4-acetylpyridine]
[1]
  activity as SARM1 activator (tested compounds): did not work

## Nc1ccncc1 [4-aminopyridine]
[1]
  activity as SARM1 activator (tested compounds): did not work

## O=C(/C=C/c1cccnc1)NCCCCC1CCN(C(=O)c2ccccc2)CC1 [FK866, reference compound]
[1]; FK866 25, 50 or 100 nM overnight, then 3-AP 300 μM
  effect on neurotoxic actions of 3-AP: blocks the neurotoxic actions of 3-AP
[4]
  3-APMN, 3-APAD and cADPR levels in 3-AP treated neurons: 3-APMN and 3-APAD remain at baseline, and cADPR levels do not increase

## NC(=O)c1cccnc1 [Nam, nicotinamide]
[1]; Nam 0, 50, 100 or 200 μM overnight, then 3-AP 500 μM
  effect of pretreatment on 3-AP-induced axon degeneration: reduces 3-AP-induced axon degeneration in a dose-dependent manner

## O=C(NCc1cccnc1)Nc1ccc([N+](=O)[O-])cc1 [Vacor, N-(4-Nitrophenyl)-N′-[(pyridin-3-yl)methyl]urea]
[5]; FIG. 6
  SARM1 dependence of neuron degeneration: SARM1-dependent
[5]; local application to neurites
  effect of local application to neurites: causes distal neurite degeneration without harming neuron cell bodies
